BindingDB's records for doi:10.1021/jm0003945 (Vrije Universiteit, 2001)

Molecular target: T1, Adenosine receptor A2b (Homo sapiens, UniProt P29275)
T1 sequence (P29275 whole entry): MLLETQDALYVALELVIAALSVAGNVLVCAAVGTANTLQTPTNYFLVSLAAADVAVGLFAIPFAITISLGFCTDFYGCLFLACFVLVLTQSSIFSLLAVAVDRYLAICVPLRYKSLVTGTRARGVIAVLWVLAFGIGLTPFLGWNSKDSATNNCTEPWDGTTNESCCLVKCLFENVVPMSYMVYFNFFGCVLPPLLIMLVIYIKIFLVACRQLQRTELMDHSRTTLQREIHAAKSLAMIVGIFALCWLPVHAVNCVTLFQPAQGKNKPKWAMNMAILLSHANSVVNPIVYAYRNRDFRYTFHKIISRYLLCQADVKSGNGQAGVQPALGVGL
Assay: Percent displacement of [3H]DPCPX binding in human adenosine A2B receptor expressed in COS-7 cells

COc1ccccc1NC(=O)Nc1nc(-c2cccnc2)nc2ccccc12 [VUF-5574]
Ki: 10 µM
